Values quoted from earlier work in US20060058387A1, “Composition and method for treating skin conditions” (priority 2004, published 2006).
One block for each compound: values may come before it.

Assays:
[1] = children, dosage intakes of 200-800 mg/kg
interstitial cystitis = settings: bladder instillations of a 50% aqueous solution

Compound: C[N+](C)(C)CC(O)CC(=O)[O-] (stereo not drawn) [carnitin, γ-Trimethyl-β-hydroxybutyrobetain]
side effects [1]: No side effects were observed

binding to plasma proteins (in vivo): highly bound | terminal elimination half-life (in vivo): 30 to 120 min | oral bioavailability (oral): about 50% | time to peak plasma concentrations (oral administration): 1 to 2 h
Compound: CC1=C(/C=C/C(C)=C/C=C/C(C)=C/C(=O)O)C(C)(C)CCC1 [tretinoin, all-trans retinoic acid]

Compound: Sulphinyl-bis-methane [DMSO]
effect on symptoms of interstitial cystitis (interstitial cystitis): appear to alleviate symptoms
